The values below come from patent publication US20100137313A1 (ASTRAZENECA AB, priority 2008, published 2010).

Chain of S. pneumoniae Topoisomerase IV ATPase (ParE) (Q59961 whole entry): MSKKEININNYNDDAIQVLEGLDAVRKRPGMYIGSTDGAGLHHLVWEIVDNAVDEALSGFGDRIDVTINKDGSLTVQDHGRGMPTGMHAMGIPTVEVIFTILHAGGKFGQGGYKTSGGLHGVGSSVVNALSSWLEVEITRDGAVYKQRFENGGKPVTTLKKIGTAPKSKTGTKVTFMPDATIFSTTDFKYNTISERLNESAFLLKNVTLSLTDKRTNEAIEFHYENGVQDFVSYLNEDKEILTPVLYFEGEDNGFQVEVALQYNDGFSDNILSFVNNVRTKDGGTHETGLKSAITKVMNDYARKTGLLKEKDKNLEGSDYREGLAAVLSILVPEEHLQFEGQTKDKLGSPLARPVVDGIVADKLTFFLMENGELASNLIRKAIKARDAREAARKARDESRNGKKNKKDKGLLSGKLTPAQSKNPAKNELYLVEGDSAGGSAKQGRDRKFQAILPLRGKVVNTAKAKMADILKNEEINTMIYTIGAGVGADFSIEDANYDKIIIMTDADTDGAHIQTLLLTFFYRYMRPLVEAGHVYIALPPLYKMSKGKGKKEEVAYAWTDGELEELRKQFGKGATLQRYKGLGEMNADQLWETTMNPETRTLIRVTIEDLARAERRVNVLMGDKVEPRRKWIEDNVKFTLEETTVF

The target of the experiment is S. pneumoniae Topoisomerase IV ATPase (ParE) (Streptococcus pneumoniae serotype 4, UniProt Q59961). The experiment can be described thus: S. pneumoniae Topoisomerase IV ATPase inhibition. The format is biochemical. The note with it: values marked * are an average of two or more data points, read-out: % Inh (13 μM) of S. pneumoniae Topoisomerase IV ATPase. Summed up:
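ParE ATPase (1.25 nM) run with 160 μM ATP and 5 μg/ml sheared salmon sperm DNA in Tris pH 8.0, Mg2+, glycerol, DTT, Brij-35. Phosphate released read by malachite green/molybdate absorbance at 650 nm. IC50 from 10 compound concentrations; DMSO (2%) as 0% and EDTA (20 μM) as 100% inhibition.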
`COc1cc(Nc2ncc(-c3cnc(OC)c(C(=O)NS(=O)(=O)CS(C)(=O)=O)c3)c(-n3nc(C(F)(F)F)cc3C)n2)cc(OC)c1` [Example 838, 5-{2-[(3,5-dimethoxyphenyl)amino]-4-[5-methyl-3-(trifluoromethyl)-1H-pyrazol-1-yl]pyrimidin-5-yl}-2-methoxy-N-{[(methylsulfonyl)methyl]sulfonyl}pyridine-3-carboxamide]: the inhibition at 13 µM turned out to be 99%.

With `Cc1cc(C(F)(F)F)nn1-c1nc(Nc2ccc(F)c(Cl)c2)ncc1-c1ccc(C(=O)O)s1` [Example 1114, 5-[2-[(3-chloro-4-fluorophenyl)amino]-4-[5-methyl-3-(trifluoromethyl)pyrazol-1-yl]pyrimidin-5-yl]thiophene-2-carboxylic acid], the inhibition at 13 µM turned out to be 100%.

In the case of `O=C(O)/C=C/c1cccc(-c2cnc(Nc3cc(F)cc(F)c3)nc2N2CCOCC2)c1` [Example 404, (E)-3-{3-[2-(3,5-Difluoro-phenylamino)-4-morpholin-4-yl-pyrimidin-5-yl]-phenyl}-acrylic acid], the inhibition at 13 µM came out at 81%.

As to `O=C(O)c1cc(-c2cnc(Nc3ccc(F)c(Cl)c3)nc2-n2ccc(C(F)(F)F)n2)c[nH]c1=O` [Example 1092, 5-(2-(3-Chloro-4-fluorophenylamino)-4-(3-(trifluoromethyl)-1H-pyrazol-1-yl)pyrimidin-5-yl)-2-oxo-1,2-dihydropyridine-3-carboxylic acid], the inhibition at 13 µM amounted to 100%.

In the case of `NC(=O)c1cncc(-c2cnc(Nc3ccc(F)c(Cl)c3)nc2-n2ccc(-c3ccsc3)n2)c1` [Example 540, 5-{2-[(3-chloro-4-fluorophenyl)amino]-4-[3-(thiophen-3-yl)-1H-pyrazol-1-yl]pyrimidin-5-yl}pyridine-3-carboxamide], the inhibition at 13 µM is 100%.

Consider `CCOC(=O)c1cncc(-c2cnc(Nc3ccc(F)c(Cl)c3)nc2N2CCN(C(C)=O)CC2)c1` [Example 142, ethyl 5-(4-(4-acetylpiperazin-1-yl)-2-(3-chloro-4-fluorophenylamino)pyrimidin-5-yl)nicotinate], for which the inhibition at 13 µM was found to be 86.2%.

With `COc1cc(Nc2ncc(-c3cnc(OC)c(-c4noc(=S)[nH]4)c3)c(-n3nc(C(F)(F)F)cc3C)n2)cc(OC)c1` [Example 974, 3-(5-(2-(3,5-dimethoxyphenylamino)-4-(5-methyl-3-(trifluoromethyl)-1H-pyrazol-1-yl)pyrimidin-5-yl)-2-methoxypyridin-3-yl)-1,2,4-oxadiazol-5(4H)-thione], the inhibition at 13 µM stood at 89%.

Regarding `Cn1cc(CNc2nc(Nc3ccc(F)c(Cl)c3)ncc2-c2cncc(C(=O)O)c2)cn1` [Example 282, 5-(2-(3-chloro-4-fluorophenylamino)-4-((1-methyl-1H-pyrazol-4-yl)methylamino)pyrimidin-5-yl)nicotinic acid], the inhibition at 13 µM stood at 117%.

On to `CC(Oc1ncc(-c2cnc(Nc3ccc(F)c(Cl)c3)nc2-n2ccc(C(F)(F)F)n2)cc1C(=O)O)c1ccncc1` (stereo not drawn) [Example 793, 5-{2-[(3-chloro-4-fluorophenyl)amino]-4-[3-(trifluoromethyl)-1H-pyrazol-1-yl]pyrimidin-5-yl}-2-[1-(pyridin-4-yl)ethoxy]pyridine-3-carboxylic acid], for which the inhibition at 13 µM stood at 100%.

Regarding `CCOC(=O)c1cncc(-c2cnc(Nc3ccc(F)c(Cl)c3)nc2N2CCN(C)CC2)c1` [Example 151, ethyl 5-(2-(3-chloro-4-fluorophenylamino)-4-(4-methylpiperazin-1-yl)pyrimidin-5-yl)nicotinate], the inhibition at 13 µM was found to be 50.1%.

For the compound `Cc1ccc(F)c(Nc2ncc(-c3cncc(C(=O)O)c3)c(-n3ccc(C(F)(F)F)n3)n2)c1` [Example 772, 5-{2-[(2-fluoro-5-methylphenyl)-amino]-4-[3-(trifluoromethyl)-1H-pyrazol-1-yl]pyrimidin-5-yl}pyridine-3-carboxylic acid], the inhibition at 13 µM was 81%.

Consider `O=C(O)/C=C/c1cccc(-c2cnc(Nc3ccc4c(c3)OCO4)nc2-n2ccc(C(F)(F)F)n2)c1` [Example 657, (2E)-3-(3-{2-(1,3-benzodioxol-5-ylamino)-4-[3-(trifluoromethyl)-1H-pyrazol-1-yl]pyrimidin-5-yl}phenyl)prop-2-enoic acid], for which the inhibition at 13 µM stood at 100%.

As for `CN(C)CCCNc1nc(Nc2ccc(F)c(Cl)c2)ncc1-c1cccc(C(=O)NCc2ccccc2)c1` [Example 362, N-benzyl-3-(2-(3-chloro-4-fluorophenylamino)-4-(3-(dimethylamino)propylamino)pyrimidin-5-yl) benzamide], the inhibition at 13 µM was 107%.

As to `COc1cc(Nc2ncc(-c3cccc(/C=C/C(=O)O)c3)c(NCCc3ccncc3)n2)cc(C(F)(F)F)c1` [Example 355, (E)-3-(3-(2-(3-methoxy-5-(trifluoromethyl)phenylamino)-4-(2-(pyridin-4-yl)ethylamino)pyrimidin-5-yl)phenyl) acrylic acid], the inhibition at 13 µM is 86.6%.

With `CCS(=O)(=O)NC(=O)c1cc(-c2cnc(Nc3ccc(F)c(Cl)c3)nc2-n2ccc(C(F)(F)F)n2)cnc1OC` [Example 1016, 5-(2-(3-Chloro-4-fluorophenylamino)-4-(3-(trifluoromethyl)-1H-pyrazol-1-yl)pyrimidin-5-yl)-N-(ethylsulfonyl)-2-methoxynicotinamide], the inhibition at 13 µM was 94%.

Regarding `COCC(COC)Oc1ncc(-c2cnc(Nc3ccc(F)c(Cl)c3)nc2-n2nc(C(F)(F)F)cc2C)cc1C(=O)O` [Example 870, 5-(2-(3-chloro-4-fluorophenylamino)-4-(5-methyl-3-(trifluoromethyl)-1H-pyrazol-1-yl)pyrimidin-5-yl)-2-(1,3-dimethoxypropan-2-yloxy)nicotinic acid], the inhibition at 13 µM stood at 100%.

Consider `O=C(O)/C=C/c1cccc(-c2cnc(Nc3ccc(F)c(Cl)c3)nc2N2CCOCC2)c1` [Example 290, (E)-3-(3-(2-(3-chloro-4-fluorophenylamino)-4-morpholinopyrimidin-5-yl)phenyl)acrylic acid], for which the inhibition at 13 µM came to 80.5%.

As to `CCOC(=O)c1cncc(-c2cnc(Nc3ccc(F)c(Cl)c3)nc2NCCCN2CCOCC2)c1` [Example 106, 5-[2-(3-Chloro-4-fluoro-phenylamino)-4-(3-morpholin-4-yl-propylamino)-pyrimidin-5-yl]-nicotinic acid ethyl ester], the inhibition at 13 µM is 40.8%.

Regarding `Fc1ccc(Nc2ncc(-c3cncnc3)c(N3CCC(N4CCOCC4)CC3)n2)cc1Cl` [Example 62, N-(3-chloro-4-fluorophenyl)-4-(4-morpholin-4-ylpiperidin-1-yl)-5-pyrimidin-5-ylpyrimidin-2-amine], the inhibition at 13 µM was found to be 71%.

As to `O=C(O)c1cncc(-c2cnc(Nc3ccc(F)c(Cl)c3)nc2NCCn2cccn2)c1` [Example 260, 5-(2-[(3-chloro-4-fluorophenyl)amino]-4-{[2-(1H-pyrazol-1-yl)ethyl]amino}pyrimidin-5-yl)pyridine-3-carboxylic acid], the inhibition at 13 µM came to 103%.

Take `COc1c(C(=O)O)cccc1-c1cnc(Nc2ccc(F)c(Cl)c2)nc1-n1ccc(C(F)(F)F)n1` [Example 1139, 3-(2-(3-chloro-4-fluorophenylamino)-4-(3-(trifluoromethyl)-1H-pyrazol-1-yl)pyrimidin-5-yl)-2-methoxybenzoic acid]: the inhibition at 13 µM came to 96%.
